Experiments:
[1] = biological target: Chitotriosidase-1 (Mus musculus, UniProt Q9D7Q1); experiment: Inhibition of mouse CHIT1 using 4-methylumbelliferyl beta-D-N,N',N'' triacetylchitotrioside as substrate measured after 60 mins by fluorometric method
[2] = biological target: Acidic mammalian chitinase (Mus musculus, UniProt Q91XA9); experiment: Inhibition of mouse AMCase using 4-methylumbelliferyl beta-D-N,N' diacetylchitobioside hydrate as substrate measured after 60 mins by fluorometric method
[3] = AUC (0 to infinity) in BALB/c mouse at 3 mg/kg, iv administered as bolus dose by LC-MS/MS analysis; type: ADME, organism-based; parameters: dose 3 mg/kg, route intravenous, time infinity; settings: in vivo
[4] = Cmax in BALB/c mouse at 3 mg/kg, iv administered as bolus dose by LC-MS/MS analysis; type: ADME, organism-based; parameters: dose 3 mg/kg, route intravenous; settings: in vivo
[5] = Clearance in BALB/c mouse at 3 mg/kg, iv administered as bolus dose by LC-MS/MS analysis; type: ADME, organism-based; settings: in vivo
[6] = Volume of distribution at steady state in BALB/c mouse at 3 mg/kg, iv administered as bolus dose by LC-MS/MS analysis; type: ADME, organism-based; settings: in vivo, read-out: Vdss
[7] = Half-life in BALB/c mouse at 3 mg/kg, iv administered as bolus dose by LC-MS/MS analysis; type: ADME, organism-based; settings: in vivo
[8] = AUC (0 to infinity) in BALB/c mouse at 10 mg/kg, po by LC-MS/MS analysis; type: ADME, organism-based; parameters: dose 10 mg/kg, time infinity, route oral; settings: in vivo
[9] = Cmax in BALB/c mouse at 10 mg/kg, po by LC-MS/MS analysis; type: ADME, organism-based; parameters: dose 10 mg/kg, route oral; settings: in vivo
[10] = Tmax in BALB/c mouse at 10 mg/kg, po by LC-MS/MS analysis; type: ADME, organism-based; settings: in vivo
[11] = Half-life in BALB/c mouse at 10 mg/kg, po by LC-MS/MS analysis; type: ADME, organism-based; settings: in vivo
[12] = Oral bioavailability in BALB/c mouse at 10 mg/kg by LC-MS/MS analysis; type: ADME, organism-based; settings: in vivo

Chain of Acidic mammalian chitinase (Q91XA9 whole entry): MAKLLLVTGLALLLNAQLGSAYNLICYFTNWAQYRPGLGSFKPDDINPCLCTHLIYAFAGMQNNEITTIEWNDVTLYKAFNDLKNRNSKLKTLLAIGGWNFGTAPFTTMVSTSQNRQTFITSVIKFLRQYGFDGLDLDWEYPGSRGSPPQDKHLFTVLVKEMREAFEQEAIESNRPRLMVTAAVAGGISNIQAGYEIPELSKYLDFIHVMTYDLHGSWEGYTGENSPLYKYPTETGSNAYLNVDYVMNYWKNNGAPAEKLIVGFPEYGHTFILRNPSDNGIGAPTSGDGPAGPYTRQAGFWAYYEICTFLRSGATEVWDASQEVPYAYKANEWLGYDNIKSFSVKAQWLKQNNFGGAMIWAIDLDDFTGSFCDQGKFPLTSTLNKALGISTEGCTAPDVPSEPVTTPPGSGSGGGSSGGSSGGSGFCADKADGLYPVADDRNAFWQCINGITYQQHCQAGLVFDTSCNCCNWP
Chain of Chitotriosidase-1 (Q9D7Q1 whole entry): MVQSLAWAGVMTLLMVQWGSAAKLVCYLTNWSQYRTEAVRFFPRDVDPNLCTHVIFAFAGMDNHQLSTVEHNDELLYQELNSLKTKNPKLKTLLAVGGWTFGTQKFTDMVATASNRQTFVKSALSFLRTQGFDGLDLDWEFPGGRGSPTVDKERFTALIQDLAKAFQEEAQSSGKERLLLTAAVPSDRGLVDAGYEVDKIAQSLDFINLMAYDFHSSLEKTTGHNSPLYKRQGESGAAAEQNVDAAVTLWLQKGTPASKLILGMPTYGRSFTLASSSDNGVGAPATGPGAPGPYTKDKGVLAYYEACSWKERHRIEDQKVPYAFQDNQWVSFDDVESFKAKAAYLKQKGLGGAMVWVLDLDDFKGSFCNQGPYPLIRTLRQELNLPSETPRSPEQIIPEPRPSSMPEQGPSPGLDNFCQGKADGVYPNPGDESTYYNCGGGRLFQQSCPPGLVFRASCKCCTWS

SMILES | IC50 [1] | IC50 [2] | also measured
C[C@H]1CN(C2CCN(c3nnc(N)[nH]3)CC2)[C@@H](Cc2ccc(Cl)cc2)CN1CC(=O)O | 53 nM | 527 nM | 
Nc1nc(N2CCC(N3C[C@@H]4CCCCN4C[C@@H]3Cc3ccc(Cl)cc3)CC2)n[nH]1 | 175 nM | 525 nM | 
CN1C[C@H](Cc2ccc(Cl)cc2)N(C2CCN(c3nnc(N)[nH]3)CC2)C[C@@H]1CC1CCCCC1 | 128 nM | 640 nM | 
CC(C)C[C@H]1CN(C2CCN(c3nnc(N)[nH]3)CC2)[C@@H](Cc2ccc(Cl)cc2)CN1C | 95 nM | 936 nM | 
C[C@H]1CN(C2CCN(c3nnc(N)[nH]3)CC2)[C@@H](Cc2ccc(Cl)cc2)CN1C | 186 nM | 1220 nM | 
CC(C)CN1C[C@H](Cc2ccc(Cl)cc2)N(C2CCN(c3n[nH]c(N)n3)CC2)C[C@@H]1C | 29 nM | 4170 nM | AUC(0-inf) [3]: 1750 ng·h/mL; Cmax [4]: 1480 ng/mL; clearance [5]: 28.5 mL/min/kg; Vd [6]: 4.6 L/kg; half-life [7]: 2.87 h; AUC(0-inf) [8]: 3570 ng·h/mL; Cmax [9]: 840 ng/mL; Tmax [10]: 0.5 h; half-life [11]: 2.83 h; bioavailability [12]: 61.2%
CC(C)C[C@H]1CN(C2CCN(c3n[nH]c(N)n3)CC2)[C@@H](Cc2ccc(Cl)cc2)CN1CC(C)C | 41 nM | 5700 nM | 
COC(=O)CN1C[C@H](Cc2ccc(Cl)cc2)N(C2CCN(c3n[nH]c(N)n3)CC2)C[C@@H]1C | 29 nM | 231 nM | 
CN1C[C@H](Cc2ccc(Cl)cc2)N(C2CCN(c3nnc(N)[nH]3)CC2)C[C@@H]1Cc1ccc(Cl)cc1 | 103 nM | 518 nM | 

Further molecules by falling IC50 [1], results first:

IC50 [1] | IC50 [2] | SMILES | also measured
4380 nM | 6020 nM | CC(=O)N1C[C@H](Cc2ccc(Cl)cc2)N(C2CCN(c3nnc(N)[nH]3)CC2)C[C@@H]1C | 
1590 nM | 7600 nM | CN1CCN(C2CCN(c3nnc(N)[nH]3)CC2)[C@@H](Cc2ccc(Cl)cc2)C1 | 
1010 nM | 3720 nM | C[C@H]1CN(C2CCN(c3nnc(N)[nH]3)CC2)[C@@H](Cc2ccc(Cl)cc2)CN1S(C)(=O)=O | 
495 nM | 1400 nM | C[C@H]1CN(C2CCN(c3n[nH]c(N)n3)CC2)[C@@H](Cc2ccc(Cl)cc2)CN1Cc1ccc(Cl)cc1 | 
461 nM | 3750 nM | COC(=O)N1C[C@H](Cc2ccc(Cl)cc2)N(C2CCN(c3nnc(N)[nH]3)CC2)C[C@@H]1C | 
175 nM | 1250 nM | CN1C[C@H](Cc2ccc(Cl)cc2)N(C2CCN(c3nnc(N)[nH]3)CC2)C[C@@H]1CO | 
161 nM | 697 nM | Nc1nnc(N2CCC(N3C[C@@H]4CCCN4C[C@@H]3Cc3ccc(Cl)cc3)CC2)[nH]1 | 
135 nM | 2910 nM | CC(C)C[C@H]1CN(C2CCN(c3n[nH]c(N)n3)CC2)[C@@H](Cc2ccc(Cl)cc2)CN1 | 
48 nM | 136 nM | Nc1nc(N2CCC(N3C[C@@H]4C[C@@H](O)CN4C[C@@H]3Cc3ccc(Cl)cc3)CC2)n[nH]1 | 
29 nM | 130 nM | Nc1nc(N2CCC(N3C[C@@H]4C[C@H](O)CN4C[C@@H]3Cc3ccc(Cl)cc3)CC2)n[nH]1 | 
24 nM | 751 nM | C[C@H]1CN(C2CCN(c3n[nH]c(N)n3)CC2)[C@@H](Cc2ccc(Cl)cc2)CN1CC(=O)N(C)C | 

From ChEMBL document CHEMBL4184114, “Discovery of selective, orally bioavailable inhibitor of mouse chitotriosidase” (Bioorg Med Chem Lett, 2018)
